{"source": "patent US20220073471A1", "about": "(JIANGSU HENGRUI MEDICINE CO., LTD., priority 2019, published 2022)", "data": [{"target": "T1, Nav1.8 ion channel stably expressed on HEK293 cells (Homo sapiens, UniProt Q9Y5Y9)", "T1 construct": "expressed in transfected cells; host or cells: HEK293", "T1 sequence (Q9Y5Y9 whole entry)": "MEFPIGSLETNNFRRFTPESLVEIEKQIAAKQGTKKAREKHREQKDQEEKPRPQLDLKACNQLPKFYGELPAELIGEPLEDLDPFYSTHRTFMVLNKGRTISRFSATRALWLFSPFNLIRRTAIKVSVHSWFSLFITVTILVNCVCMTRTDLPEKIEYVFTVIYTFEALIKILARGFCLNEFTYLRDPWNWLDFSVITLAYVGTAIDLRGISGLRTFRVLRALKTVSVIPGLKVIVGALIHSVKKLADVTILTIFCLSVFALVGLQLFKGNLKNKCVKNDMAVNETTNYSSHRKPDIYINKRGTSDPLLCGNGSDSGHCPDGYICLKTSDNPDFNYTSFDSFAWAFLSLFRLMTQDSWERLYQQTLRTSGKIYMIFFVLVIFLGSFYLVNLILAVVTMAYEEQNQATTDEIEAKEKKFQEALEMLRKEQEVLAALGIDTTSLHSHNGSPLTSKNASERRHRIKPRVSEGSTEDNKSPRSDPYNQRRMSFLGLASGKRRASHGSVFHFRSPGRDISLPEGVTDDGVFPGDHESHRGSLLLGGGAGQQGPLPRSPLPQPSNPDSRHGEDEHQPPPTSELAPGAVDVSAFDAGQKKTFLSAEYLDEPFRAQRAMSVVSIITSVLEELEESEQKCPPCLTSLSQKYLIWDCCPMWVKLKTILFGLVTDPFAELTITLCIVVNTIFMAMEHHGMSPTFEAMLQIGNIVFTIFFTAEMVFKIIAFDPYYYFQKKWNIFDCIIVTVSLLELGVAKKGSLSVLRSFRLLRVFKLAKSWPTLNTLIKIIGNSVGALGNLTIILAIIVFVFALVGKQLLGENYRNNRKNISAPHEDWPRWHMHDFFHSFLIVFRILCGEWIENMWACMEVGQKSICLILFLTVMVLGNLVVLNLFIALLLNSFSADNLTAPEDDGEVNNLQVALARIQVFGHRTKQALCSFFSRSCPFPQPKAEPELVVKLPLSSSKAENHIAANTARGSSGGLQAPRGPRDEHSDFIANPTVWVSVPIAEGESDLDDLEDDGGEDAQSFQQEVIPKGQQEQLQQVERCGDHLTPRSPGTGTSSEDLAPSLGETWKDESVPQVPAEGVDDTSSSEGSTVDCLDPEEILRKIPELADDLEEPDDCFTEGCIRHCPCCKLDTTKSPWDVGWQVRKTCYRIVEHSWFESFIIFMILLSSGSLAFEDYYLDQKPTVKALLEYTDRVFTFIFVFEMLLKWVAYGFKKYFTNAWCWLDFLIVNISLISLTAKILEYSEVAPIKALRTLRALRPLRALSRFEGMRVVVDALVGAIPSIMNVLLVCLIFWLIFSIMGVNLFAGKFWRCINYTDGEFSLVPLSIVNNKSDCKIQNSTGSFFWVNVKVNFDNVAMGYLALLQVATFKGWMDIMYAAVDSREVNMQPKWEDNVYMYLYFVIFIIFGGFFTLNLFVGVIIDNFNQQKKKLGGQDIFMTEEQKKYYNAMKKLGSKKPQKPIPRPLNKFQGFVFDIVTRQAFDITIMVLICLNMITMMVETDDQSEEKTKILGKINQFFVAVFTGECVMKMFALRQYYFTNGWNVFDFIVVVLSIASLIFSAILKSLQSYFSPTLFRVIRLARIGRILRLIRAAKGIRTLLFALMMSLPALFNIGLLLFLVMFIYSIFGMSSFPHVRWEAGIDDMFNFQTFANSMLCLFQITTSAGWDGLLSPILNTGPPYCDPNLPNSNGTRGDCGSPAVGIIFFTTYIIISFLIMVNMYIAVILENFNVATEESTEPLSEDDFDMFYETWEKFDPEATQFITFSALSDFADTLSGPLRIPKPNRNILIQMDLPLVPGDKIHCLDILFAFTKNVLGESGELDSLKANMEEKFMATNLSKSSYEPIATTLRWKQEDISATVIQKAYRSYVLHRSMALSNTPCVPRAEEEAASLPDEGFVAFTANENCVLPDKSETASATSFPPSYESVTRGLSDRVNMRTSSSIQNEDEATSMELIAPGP", "assay": "Inhibitory activity on Nav1.8, manual patch clamp", "assay_type": "cell-based", "conditions": "resting, clamped at -80 mV, 1 μM TTX, read-out: IC50 on inhibiting the Nav1.8 channel activity", "source_text": "The purpose of the experiment is to investigate the effect of the compounds on Nav1.8 ion channel in an in vitro experiment, wherein the Nav1.8 ion channel is stably expressed on HEK293 cells. After the Nav1.8 current becomes stable, the Nav1.8 currents before and after the administration of the compound are compared so as to obtain the effect of the compound on the Nav1.8 ion channel.\nExcept for NaOH and KOH used for acid titration and base titration, all the compounds used for formulating the extracellular fluid and intracellular fluid were purchased from Sigma (St. Louis, Mo.). Extracellular fluid (mM): NaCl, 137; KCl, 4; CaCl2), 1.8; MgCl2, 1; HEPES, 10; glucose, 10; pH 7.4 (NaOH titration). Intracellular fluid (mM): aspartic acid, 140; MgCl2, 2; EGTA, 11; HEPES, 10; pH 7.2 (CsOH titration). All solutions of test compound and control compound contained 1 μM TTX.\nThe test compound was dissolved in dimethyl sulfoxide (DMSO) at a stock concentration of 9 mM. The stock solution of the test compound was dissolved in the extracellular fluid on the day of the test and formulated into the required concentration.\n1) The compound was formulated into solutions with specified concentrations, the solutions were added to the pipelines respectively in order from low to high concentration, and the pipelines were marked.\n2) The cell was transferred to the perfusion tank. A positive pressure was applied to the electrode. The tip of the electrode touched the cell. The three-way valve of the air extracting device was adjusted to a three-way state. A negative pressure was applied to the electrode, so that a high-resistance seal was formed between the electrode and the cell.\nThe negative pressure was applied continuously, thereby causing the cell membrane to rupture and forming a current path.\n3) After the current for rupturing the cell membrane became stable, perfusion of different concentrations was carried out in sequence. Once the current was stable for at least one minute, perfusion of the next concentration was carried out.\n4) The perfusion tank was cleaned. The perfusion tank was rinsed with the drug solutions in order from high to low concentration, and the rinse duration for each concentration of drug solution was 20 seconds. The perfusion tank was finally rinsed with the extracellular fluid for 1 minute.\nThe cell was clamped at −80 mV. The cell was depolarized to 10 mV with a square wave lasting 10 milliseconds to obtain the Nav1.8 current. This procedure was repeated every 5 seconds. The maximum current caused by the square wave was measured. After the current became stable, the test compound was perfused. After the response became stable, the blocking intensity was calculated.\nThe data was stored in the computer system for analysis. Data collection and analysis were carried out by pCLAMP 10 (Molecular Devices, Union City, Calif.), and the analysis results were reviewed by the administrator. Stable current means that the current changes within a limited range over time. The magnitude of stable current was used to calculate the effect of the compound at the concentration.", "units": {"IC50": "nM"}, "values": [{"smiles": "COc1cc(F)ccc1Oc1cc(Cl)c(Cl)cc1C(=O)Nc1cn[nH]c(=O)c1", "note": "[Example 1, 4,5-Dichloro-2-(4-fluoro-2-methoxyphenoxy)-N-(6-oxo-1,6-dihydropyridazin-4-yl)benzamide]", "IC50": 1.6}, {"smiles": "Cc1cc(F)ccc1Oc1cc(Cl)c(Cl)cc1C(=O)Nc1cn[nH]c(=O)c1", "note": "[Example 3, 4,5-Dichloro-2-(4-fluoro-2-methylphenoxy)-N-(6-oxo-1,6-dihydropyridazin-4-yl)benzamide]", "IC50": 3.3}, {"smiles": "O=C(Nc1cn[nH]c(=O)c1)c1cc(Cl)c(Cl)cc1Oc1ccc(F)cc1", "note": "[Example 4, 4,5-Dichloro-2-(4-fluorophenoxy)-N-(6-oxo-1,6-dihydropyridazin-4-yl)benzamide]", "IC50": 14.1}, {"smiles": "Cc1cc(F)ccc1Oc1cc(C(F)(F)C(F)(F)F)ccc1C(=O)Nc1cn[nH]c(=O)c1", "note": "[Example 5, 2-(4-Fluoro-2-methylphenoxy)-N-(6-oxo-1,6-dihydropyridazin-4-yl)-4-(perfluoroethyl)benzamide]", "IC50": 23.7}, {"smiles": "Cc1cc(OC(F)(F)F)ccc1Oc1cc(C(F)(F)F)ccc1C(=O)Nc1cn[nH]c(=O)c1", "note": "[Example 6, 2-(2-Methyl-4-(trifluoromethoxy)phenoxy)-N-(6-oxo-1,6-dihydropyridazin-4-yl)-4-(trifluoromethyl)benzamide]", "IC50": 24.4}, {"smiles": "Cc1cc(F)ccc1Oc1ccc(C(F)(F)F)cc1C(=O)Nc1cn[nH]c(=O)c1", "note": "[Example 7, 2-(4-Fluoro-2-methylphenoxy)-N-(6-oxo-1,6-dihydropyridazin-4-yl)-5-(trifluoromethyl)benzamide]", "IC50": 30.8}, {"smiles": "COc1cc(F)ccc1Oc1cc(C(F)(F)F)ccc1C(=O)Nc1cn[nH]c(=O)c1", "note": "[Example 8, 2-(4-Fluoro-2-methoxyphenoxy)-N-(6-oxo-1,6-dihydropyridazin-4-yl)-4-(trifluoromethyl)benzamide]", "IC50": 45.8}, {"smiles": "Cc1cc(F)ccc1Oc1cc(C(F)(F)F)ccc1C(=O)Nc1cn[nH]c(=O)c1", "note": "[Example 9, 2-(4-Fluoro-2-methylphenoxy)-N-(6-oxo-1,6-dihydropyridazin-4-yl)-4-(trifluoromethyl)benzamide]", "IC50": 83.4}, {"smiles": "Cc1cc(F)ccc1Cc1cc(C(F)(F)F)c(Cl)cc1C(=O)Nc1cn[nH]c(=O)c1", "note": "[Example 13, 5-Chloro-2-(4-fluoro-2-methylbenzyl)-N-(6-oxo-1,6-dihydropyridazin-4-yl)-4-(trifluoromethyl)benzamide]", "IC50": 2.3}, {"smiles": "O=C(Nc1cn[nH]c(=O)c1)c1cc(Cl)c(C(F)(F)F)cc1Oc1ccc(OC(F)(F)F)cc1F", "note": "[Example 14, 5-Chloro-2-(2-fluoro-4-(trifluoromethoxy)phenoxy)-N-(6-oxo-1,6-dihydropyridazin-4-yl)-4-(trifluoromethyl)benzamide]", "IC50": 2.5}, {"smiles": "COc1cc(F)ccc1Oc1ccc(C(F)(F)F)cc1C(=O)Nc1cn[nH]c(=O)c1", "note": "[Example 16, 2-(4-Fluoro-2-methoxyphenoxy)-N-(6-oxo-1,6-dihydropyridazin-4-yl)-5-(trifluoromethyl)benzamide]", "IC50": 17.9}, {"smiles": "COc1cc(F)ccc1Sc1cc(C(F)(F)F)c(Cl)cc1C(=O)Nc1cn[nH]c(=O)c1", "note": "[Example 17, 5-Chloro-2-((4-fluoro-2-methoxyphenyl)thio)-N-(6-oxo-1,6-dihydropyridazin-4-yl)-4-(trifluoromethyl)benzamide]", "IC50": 18}, {"smiles": "COc1cc(F)ccc1Oc1cc(Cl)c(F)cc1C(=O)Nc1cn[nH]c(=O)c1", "note": "[Example 18, 4-Chloro-5-fluoro-2-(4-fluoro-2-methoxyphenoxy)-N-(6-oxo-1,6-dihydropyridazin-4-yl)benzamide]", "IC50": 22.2}, {"smiles": "Cc1cc(F)ccc1Oc1cc(Cl)c(F)cc1C(=O)Nc1cn[nH]c(=O)c1", "note": "[Example 19, 4-Chloro-5-fluoro-2-(4-fluoro-2-methylphenoxy)-N-(6-oxo-1,6-dihydropyridazin-4-yl)benzamide]", "IC50": 31.7}, {"smiles": "Cc1cc(F)ccc1Oc1cc(Cl)ccc1C(=O)Nc1cn[nH]c(=O)c1", "note": "[Example 20, 4-Chloro-2-(4-fluoro-2-methylphenoxy)-N-(6-oxo-1,6-dihydropyridazin-4-yl)benzamide]", "IC50": 58.5}, {"smiles": "COc1cc(F)ccc1Oc1cc(Cl)ccc1C(=O)Nc1cn[nH]c(=O)c1", "note": "[Example 21, 4-Chloro-2-(4-fluoro-2-methoxyphenoxy)-N-(6-oxo-1,6-dihydropyridazin-4-yl)benzamide]", "IC50": 59.4}, {"smiles": "COc1cc(F)ccc1Oc1ccc(OC(F)(F)F)cc1C(=O)Nc1cn[nH]c(=O)c1", "note": "[Example 22, 2-(4-Fluoro-2-methoxyphenoxy)-N-(6-oxo-1,6-dihydropyridazin-4-yl)-5-(trifluoromethoxy)benzamide]", "IC50": 87.8}, {"smiles": "Cc1cc(F)ccc1Oc1ccc(Cl)cc1C(=O)Nc1cn[nH]c(=O)c1", "note": "[Example 23, 5-Chloro-2-(4-fluoro-2-methylphenoxy)-N-(6-oxo-1,6-dihydropyridazin-4-yl)benzamide]", "IC50": 92.3}, {"smiles": "Cc1cc(F)ccc1Oc1cc(Cl)c(C(F)(F)F)cc1C(=O)Nc1cn[nH]c(=O)c1", "note": "[Example 27, 4-Chloro-2-(4-fluoro-2-methylphenoxy)-N-(6-oxo-1,6-dihydropyridazin-4-yl)-5-(trifluoromethyl)benzamide]", "IC50": 5.7}, {"smiles": "Cc1cc(Oc2ccc(F)cc2C)c(C(=O)Nc2cn[nH]c(=O)c2)cc1Cl", "note": "[Example 28, 5-Chloro-2-(4-fluoro-2-methylphenoxy)-4-methyl-N-(6-oxo-1,6-dihydropyridazin-4-yl)benzamide]", "IC50": 5.2}, {"smiles": "Cc1cc(F)ccc1Oc1cc(C(F)(F)F)cc(C(F)(F)F)c1C(=O)Nc1cn[nH]c(=O)c1", "note": "[Example 29, 2-(4-Fluoro-2-methylphenoxy)-N-(6-oxo-1,6-dihydropyridazin-4-yl)-4,6-bis(trifluoromethyl)benzamide]", "IC50": 90.4}, {"smiles": "Cc1ccccc1Oc1cc(C(F)(F)F)c(Cl)cc1C(=O)Nc1cn[nH]c(=O)c1", "note": "[Example 30, 5-Chloro-N-(6-oxo-1,6-dihydropyridazin-4-yl)-2-(o-tolyloxy)-4-(trifluoromethyl)benzamide]", "IC50": 16.2}, {"smiles": "CCOc1cc(F)ccc1Oc1cc(C(F)(F)F)c(Cl)cc1C(=O)Nc1cn[nH]c(=O)c1", "note": "[Example 32, 5-Chloro-2-(2-ethoxy-4-fluorophenoxy)-N-(6-oxo-1,6-dihydropyridazin-4-yl)-4-(trifluoromethyl)benzamide]", "IC50": 0.37}, {"smiles": "Cc1cc(F)ccc1Oc1cc(C(F)(F)F)c(C)cc1C(=O)Nc1cn[nH]c(=O)c1", "note": "[Example 34, 2-(4-Fluoro-2-methylphenoxy)-5-methyl-N-(6-oxo-1,6-dihydropyridazin-4-yl)-4-(trifluoromethyl)benzamide]", "IC50": 11.5}, {"smiles": "CCc1cc(F)ccc1Oc1cc(C(F)(F)F)c(Cl)cc1C(=O)Nc1cn[nH]c(=O)c1", "note": "[Example 36, 5-Chloro-2-(2-ethyl-4-fluorophenoxy)-N-(6-oxo-1,6-dihydropyridazin-4-yl)-4-(trifluoromethyl)benzamide]", "IC50": 1.54}, {"smiles": "O=C(Nc1cn[nH]c(=O)c1)c1cc(Cl)c(C(F)(F)F)cc1Oc1ccc(F)cc1OC(F)F", "note": "[Example 37, 5-Chloro-2-(2-(difluoromethoxy)-4-fluorophenoxy)-N-(6-oxo-1,6-dihydropyridazin-4-yl)-4-(trifluoromethyl)benzamide]", "IC50": 2.38}, {"smiles": "O=C(Nc1cn[nH]c(=O)c1)c1cc(Cl)c(C(F)(F)F)cc1Oc1ccc(F)c2c1CCC2", "note": "[Example 39, 5-Chloro-2-((7-fluoro-2,3-dihydro-1H-inden-4-yl)oxy)-N-(6-oxo-1,6-dihydropyridazin-4-yl)-4-(trifluoromethyl)benzamide]", "IC50": 0.24}, {"smiles": "O=C(Nc1cn[nH]c(=O)c1)c1cc(Cl)c(C(F)(F)F)cc1Oc1ccc(F)cc1OC1CCCC1", "note": "[Example 40, 5-Chloro-2-(2-(cyclopentyloxy)-4-fluorophenoxy)-N-(6-oxo-1,6-dihydropyridazin-4-yl)-4-(trifluoromethyl)benzamide]", "IC50": 0.32}, {"smiles": "O=C(Nc1cn[nH]c(=O)c1)c1cc(Cl)c(C(F)(F)F)cc1Oc1ccc(F)cc1OC1CCC1", "note": "[Example 41, 5-Chloro-2-(2-cyclobutoxy-4-fluorophenoxy)-N-(6-oxo-1,6-dihydropyridazin-4-yl)-4-(trifluoromethyl)benzamide]", "IC50": 1.86}, {"smiles": "CC(C)Oc1cc(F)ccc1Oc1cc(C(F)(F)F)c(Cl)cc1C(=O)Nc1cn[nH]c(=O)c1", "note": "[Example 42]", "IC50": 2.98}]}]}
